Twelve compounds from patent publication US11052092B2, “N-{[2-(piperidin-1-yl)phenyl](phenyl)methyl}-2-(3-oxo-3,4-dihydro-2H-1,4-benzoxazin-7-yl)acetamide derivatives and related compounds as ROR-gamma modulators for treating autoimmune diseases” (Genfit, priority 2017, dated 2021) can be followed below.

The structures appear in SMILES notation.

The experiment has as its target T1, human RORγt (Homo sapiens, UniProt P51449).
T1 construct: the full-length cDNA of human RORγt; expressed in transfected cells; host or cells: COS-7 (monkey kidney)
T1 sequence (P51449 1-497 isoform P51449-2): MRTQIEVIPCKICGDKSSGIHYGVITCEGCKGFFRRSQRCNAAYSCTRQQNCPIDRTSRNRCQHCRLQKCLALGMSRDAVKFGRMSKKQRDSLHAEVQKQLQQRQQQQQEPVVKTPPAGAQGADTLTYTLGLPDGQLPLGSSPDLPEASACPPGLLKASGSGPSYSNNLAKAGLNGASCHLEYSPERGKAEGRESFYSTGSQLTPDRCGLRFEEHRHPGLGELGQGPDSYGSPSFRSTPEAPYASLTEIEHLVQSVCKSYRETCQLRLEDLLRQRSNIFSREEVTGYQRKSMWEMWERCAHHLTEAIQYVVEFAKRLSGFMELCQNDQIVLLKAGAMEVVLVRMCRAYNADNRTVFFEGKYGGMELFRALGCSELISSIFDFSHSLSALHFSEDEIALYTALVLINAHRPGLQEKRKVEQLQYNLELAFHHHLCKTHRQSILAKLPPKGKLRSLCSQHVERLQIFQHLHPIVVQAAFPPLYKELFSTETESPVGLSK
Kind of experiment: RORE Luciferase/RORγt transactivation assay. The format is cell-based. Particulars: COS-7 cells transfected with human IL-17 promoter luciferase reporter and RORγt plasmid; 20 h with compound; read-out: IC50, RORγt activity inhibition. Here is the method:
It is well known that RORγ binds to a conserved non-coding sequence (CNS) enhancer element in the IL-17 promoter.
Culture medium was changed every 2 days.
The 4.3 Kb human IL-17 promoter containing the RORγ-specific CNS enhancer element was PCR amplified from human genomic DNA and cloned into a pGL3-TKLuc2Cp reporter plasmid.
The luciferase reporter plasmid and the RORγt overexpression plasmid were transfected into COS-7 cell line using 4 μLJetPEI™/μg of DNA. Briefly, 150 ng of DNA (ration ½ between RORE-Tk Luc2Cp and cDNA RORγt or the empty vector for the negative control) was served to transfect adherent COS-7 cells in a […] culture flask, in complete medium (see cos-7 cell line culture).
Cells were then detached (using trypsin) and washed by centrifugation at 300 g for 10 minutes. Cell pellet was resuspended in serum free/phenol red free DMEM and seeded in 384 well plates at a density of 10000 cells/well and then incubated for 4 h at 37° C.
Compounds were dissolved in 100% DMSO to obtain 10 mM stock solutions. For each compound, test concentrations were diluted in serum free/phenol red free DMEM using the Genesis Freedom 200™ (TECAN) and added to the cells to obtain a 0.3% DMSO final concentration (in a final volume of 40 μL per well).
The luciferase activity was then measured with 40 μL/well steady-Glo Luciferase assay system (Promega, Madison, Wis.) and after incubation at room temperature for 30 minutes. The luminescence was estimated using the Ultra384 reader (TECAN). Data were collected and analyzed using GraphPad Prism software (GraphPad Software V5.02, San Diego Calif. USA). IC50 in μM and Emax in % were reported for each compound.
For `Cc1ccc(C(NC(=O)C2(c3ccc4c(c3)OCO4)CC2)c2ccc(C)o2)c(C)c1` (stereo not drawn) [Cpd. 137, 1-(2H-1,3-benzodioxol-5-yl)-N-[(2,4-dimethylphenyl)(5-methylfuran-2-yl)methyl]cyclopropane-1-carboxamide], the IC50 is 10 to 100 nM.
On to `Cc1ccc(C(NC(=O)C2(c3ccc4c(c3)OCC(=O)N4)CC2)c2ccco2)c(C)c1` (stereo not drawn) [Cpd. 139, N-[(2,4-dimethylphenyl)(furan-2-yl)methyl]-1-(3-oxo-3,4-dihydro-2H-1,4-benzoxazin-7-yl)cyclopropane-1-carboxamide], for which the IC50 lay within 10 to 100 nM.
On to `Cc1ccc(C(NC(=O)C2(c3ccc4c(c3)OCC(=O)N4)CC2)c2ccc(Cl)cc2)c(C)c1` (stereo not drawn) [Cpd. 140, N-[(4-chlorophenyl)(2,4-dimethylphenyl)methyl]-1-(3-oxo-3,4-dihydro-2H-1,4-benzoxazin-7-yl)cyclopropane-1-carboxamide], for which the IC50 is 1000 to 10000 nM.
Turning to `Cc1ccc(C(NC(=O)C2(c3ccc4c(c3)CCC4=O)CC2)c2ccc(C)o2)c(C)c1` (stereo not drawn) [Cpd. 141, N-[(2,4-dimethylphenyl)(5-methylfuran-2-yl)methyl]-1-(1-oxo-2,3-dihydro-1H-inden-5-yl)cyclopropane-1-carboxamide], the IC50 is 100 to 1000 nM.
For the compound `Cc1ccc(C(NC(=O)C2(c3ccc4c(c3)OCC(=O)N4)CC2)c2cccc(Cl)c2)c(C)c1` (stereo not drawn) [Cpd. 143, N-[(3-chlorophenyl)(2,4-dimethylphenyl)methyl]-1-(3-oxo-3,4-dihydro-2H-1,4-benzoxazin-7-yl)cyclopropane-1-carboxamide], the IC50 lay in the range of 10 to 100 nM.
Then `Cc1ccc(C(NC(=O)C2(c3ccc4c(n3)OCC(=O)N4)CC2)c2ccc(C)o2)c(C)c1` (stereo not drawn) [Cpd. 144, N-[(2,4-dimethylphenyl)(5-methylfuran-2-yl)methyl]-1-{2-oxo-1H,2H,3H-pyrido[2,3-b][1,4]oxazin-6-yl}cyclopropane-1-carboxamide], with 10 to 100 nM; and `Cc1ccc(C(NC(=O)C2(c3ccc4c(c3)OCC(=O)N4)CC2)c2ccc(Cl)o2)c(N2CCCCC2)c1` (stereo not drawn) [Cpd. 145, N-[(5-chlorofuran-2-yl)[4-methyl-2-(piperidin-1-yl)phenyl]methyl]-1-(3-oxo-3,4-dihydro-2H-1,4-benzoxazin-7-yl)cyclopropane-1-carboxamide], with 10 to 100 nM.
Then `Cc1ccc(C(NC(=O)C2(c3ccc4c(c3)C(C)(C)C(=O)N4)CC2)c2ccc(C)o2)c(C)c1` (stereo not drawn) [Cpd. 146, 1-(3,3-dimethyl-2-oxo-2,3-dihydro-1H-indol-5-yl)-N-[(2,4-dimethylphenyl)(5-methylfuran-2-yl)methyl]cyclopropane-1-carboxamide], with 10 to 100 nM; and `COc1ccc(C(NC(=O)C2(c3ccc4c(c3)OCS(=O)(=O)N4)CC2)c2ccc(C)o2)c(Br)c1` (stereo not drawn) [Cpd. 147, N-[(2-bromo-4-methoxyphenyl)(5-methylfuran-2-yl)methyl]-1-(2,2-dioxo-1,3-dihydro-4,2,1-benzoxathiazin-6-yl)cyclopropane-1-carboxamide], with 10 to 100 nM; and `Cc1ccc(C(NC(=O)C2(c3ccc4c(c3)OCS(=O)(=O)N4)CC2)c2ccc(C)o2)c(N(C)C)c1` (stereo not drawn) [Cpd. 148, N-{[2-(dimethylamino)-4-methylphenyl](5-methylfuran-2-yl)methyl}-1-(2,2-dioxo-1,3-dihydro-4,2,1-benzoxathiazin-6-yl)cyclopropane-1-carboxamide], with 100 to 1000 nM.
Then `Cc1ccc(C(NC(=O)C2(c3ccc4c(c3)OCS(=O)(=O)N4)CC2)c2ccc(Cl)o2)c(C)c1` (stereo not drawn) [Cpd. 149, N-[(5-chlorofuran-2-yl)(2,4-dimethylphenyl)methyl]-1-(2,2-dioxo-1,3-dihydro-4,2,1-benzoxathiazin-6-yl)cyclopropane-1-carboxamide], with 10 to 100 nM; and `Cc1ccc(C(NC(=O)Cc2ccc3c(c2)OCS(=O)(=O)N3)c2ccc(C)o2)c(Br)c1` (stereo not drawn) [Cpd. 150, N-[(2-bromo-4-methylphenyl)(5-methylfuran-2-yl)methyl]-2-(2,2-dioxo-1,3-dihydro-4,2,1-benzoxathiazin-6-yl)acetamide], with 100 to 1000 nM.
